# According to PubChem BioAssay (NCI):
# Where “and” joins values, the source holds several entries; their conditions need not be identical. Equal entries are not always repeated.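 Results reflect a 48-hour exposure of cells in 96-well plates to compound at five concentrations. GI50: concentration for 50% inhibition of growth. TGI: total growth inhibition.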
# Key:
# Assay in all cases: DTP human tumour cell line panel, 48 h
# DU-145 prostate = tested on: DU-145 prostate
# HOP-92 NSCLC = tested on: HOP-92 NSCLC
# U251 CNS = tested on: U251 CNS
# UACC-257 melanoma = tested on: UACC-257 melanoma
# NCI-H23 lung = tested on: NCI-H23 lung
# OVCAR-8 ovarian = tested on: OVCAR-8 ovarian
# IGROV1 ovarian = tested on: IGROV1 ovarian
# EKVX NSCLC = tested on: EKVX NSCLC
# UO-31 renal = tested on: UO-31 renal
# ACHN renal = tested on: ACHN renal
SMILES,GI50 (DU-145 prostate),TGI (DU-145 prostate),GI50 (HOP-92 NSCLC),TGI (HOP-92 NSCLC),GI50 (U251 CNS),TGI (U251 CNS),GI50 (UACC-257 melanoma),TGI (UACC-257 melanoma),GI50 (NCI-H23 lung),TGI (NCI-H23 lung),GI50 (OVCAR-8 ovarian),TGI (OVCAR-8 ovarian),GI50 (IGROV1 ovarian),TGI (IGROV1 ovarian),GI50 (EKVX NSCLC),TGI (EKVX NSCLC),GI50 (UO-31 renal),TGI (UO-31 renal),GI50 (ACHN renal),TGI (ACHN renal)
CCCN(CCC)c1ccc(/C=N/NC(=O)c2cccnc2)c(C)c1,16.4 µM,43.9 µM,11.3 µM,26.2 µM,13.3 µM,26 µM,12.3 µM,24.8 µM,14.4 µM,32.1 µM,18 µM,44.1 µM,16 µM,39.7 µM,13.5 µM,37.2 µM,15.6 µM,38.1 µM,24.5 µM,> 100 µM
CCOC(=O)c1ccc(N2NC(=O)/C(=C/c3ccc([N+](=O)[O-])o3)C2=O)cc1,18 µM,32.3 µM,15.6 µM,31.8 µM,39.9 µM,> 66.6 µM,16 µM,30.8 µM,21 µM,52.6 µM,27.8 µM,> 64.2 µM,20 µM,41.4 µM,> 37.7 µM,> 53.1 µM,5.64 µM,13.8 µM,8.27 µM,20.8 µM
Cc1cccc2c(=O)c3c(sc12)c(NCCCNCCO)nc1ccccc13,1.57 µM,2.96 µM,1.21 µM,3.24 µM,1.5 µM,2.96 µM,1.86 µM,3.54 µM,1.66 µM,3.13 µM,1.71 µM,3.37 µM,1.34 µM,2.96 µM,1.57 µM,3 µM,1.19 µM,2.55 µM,1.49 µM,2.81 µM
CN1CCN(C)C1c1ccc(C2N(C)CCN2C)cc1,30.2 µM,> 100 µM,> 100 µM,> 100 µM,39.7 µM,> 100 µM,> 100 µM,> 100 µM,45.7 µM,> 100 µM,38.4 µM,> 100 µM,> 100 µM,> 100 µM,> 100 µM,> 100 µM,> 100 µM,> 100 µM,80 µM,> 100 µM
COc1cc(-n2cc(-c3ccc(Cl)cc3)n(-c3ccccc3)c2=O)cc(OC)c1OC,43.6 µM,> 100 µM,22.7 µM,> 100 µM,23.5 µM,> 100 µM,15.5 µM,71.9 µM,35.1 µM,> 100 µM,27.7 µM,> 100 µM,7.87 µM,36.2 µM,18.5 µM,> 100 µM,16.6 µM,> 93.9 µM,25.8 µM,> 100 µM
COc1cccc(S(=O)(=O)NC2=NCCN2C(=S)SN2CCn3c2nsc3=S)c1,44.2 µM,> 100 µM,44.4 µM,> 100 µM,22 µM,61.8 µM,31.5 µM,86.2 µM,–,–,44.4 µM,> 100 µM,27.2 µM,78.5 µM,95.7 µM,> 100 µM,23.3 µM,49.1 µM,15.6 µM,29.8 µM
COc1ccc(Sc2[nH]c(C=O)c3ccccc23)cc1,6.25 µM,21.6 µM,5.52 µM,21 µM,12.3 µM,24.8 µM,20.1 µM,49.6 µM,14.3 µM,32.3 µM,14.1 µM,32 µM,13.8 µM,37.6 µM,5.49 µM,34.1 µM,5.11 µM,22.2 µM,14.9 µM,28.8 µM
CCOc1ccc(-c2nc3ccc(-c4nc5ccc(N6CCN(C)CC6)cc5[nH]4)cc3[nH]2)cc1,0.402 µM,1.57 µM,0.213 µM and 0.0913 µM,2.27 µM and 1.52 µM,0.155 µM,1.05 µM,–,–,0.288 µM,1.44 µM,0.162 µM and 0.315 µM,0.54 µM and 1.25 µM,0.514 µM,2.44 µM,0.658 µM,3.1 µM,2.54 µM,7.7 µM,0.631 µM and 1.18 µM,1.89 µM and 2.7 µM
CC[C@]12CN3CCc4c([nH]c5ccccc45)[C@@](C(=O)OC)(c4cc5c(cc4OC)N(C)[C@H]4[C@@](O)(C(=O)OC)[C@H](OC(C)=O)[C@]6(CC)C=CCN7CC[C@]54[C@@H]76)CC(C3)[C@H]1O2 (stereo partly specified),0.121 µM,–,1.29 µM,> 100 µM,0.137 µM,34 µM and > 50 µM,0.161 µM,> 100 µM,0.205 µM,> 68.1 µM,0.273 µM,> 100 µM,0.154 µM,> 100 µM,0.256 µM,> 100 µM,1.83 µM,> 88.5 µM,2.14 µM,> 100 µM
CCCCCSc1ccc2nc(NC(=O)OCC)sc2c1,1.72 µM,> 100 µM,1.44 µM,67.8 µM,0.41 µM,11 µM,> 100 µM,> 100 µM,1.15 µM,> 100 µM,4.85 µM,> 100 µM,0.945 µM,> 100 µM,0.557 µM,> 100 µM,1.39 µM,> 100 µM,0.908 µM,> 100 µM
COc1cccc(/C=N\NC(=O)c2ccncc2)c1O,5.13 µM,> 100 µM,3.16 µM,> 100 µM,2.95 µM,> 100 µM,5 µM,> 100 µM,5.28 µM,> 100 µM,4.54 µM,> 100 µM,6.98 µM,> 100 µM,6.78 µM,> 100 µM,2.36 µM,56.8 µM,2.96 µM,> 100 µM
COc1ccc2c(n1)Sc1nc3ccccc3nc1N2,–,> 100 µM,–,> 100 µM,–,52.7 µM,–,> 100 µM,–,> 100 µM,–,57 µM,–,> 100 µM,–,60.3 µM,–,89.1 µM,–,> 100 µM
CCCCCCOC(=O)CC1=C(C)/C(=C/c2[nH]c(-c3ccc[nH]3)cc2OC)N=C1C,0.0728 µM,1.86 µM,0.0332 µM,0.351 µM,0.0675 µM,1.13 µM,0.394 µM,1.51 µM,0.101 µM,1.75 µM,0.238 µM,1.21 µM,0.178 µM,1.23 µM,0.0576 µM,1.64 µM,0.163 µM,0.329 µM,0.0663 µM,0.779 µM
Cc1nnn(C)c1-c1cnc2c3ccc(C(C)(C)O)cc3n([C@H](c3ccccc3)C3CCOCC3)c2c1,11.2 µM,> 100 µM,< 0.01 µM,22.7 µM,0.27 µM,> 47.5 µM,< 0.0132 µM,31.3 µM,0.158 µM,34.1 µM,0.0652 µM,31.6 µM,< 0.02 µM,> 79.3 µM,0.221 µM,> 71.7 µM,< 0.01 µM,13.4 µM,0.0243 µM,14.9 µM
COc1cc2c(cc1OC)[C@@H]1C(=O)c3ccc4c(c3O[C@@H]1CO2)C[C@H](C(C)C)O4,14.5 µM,> 100 µM,2.04 µM,22.3 µM,4.57 µM,> 38.2 µM,4.19 µM,> 57.7 µM,0.0416 µM,> 38 µM,3.96 µM,> 69.9 µM,14.2 µM,> 85.5 µM,0.239 µM,> 48.2 µM,3.75 µM,97.9 µM,3.13 µM,> 46.4 µM
CCNCC(=O)Nc1ccc2c(c1)C(=O)c1ccc(NC(=O)CNCC)cc1C2=O,–,11.7 µM,–,12.5 µM,–,5.3 µM,–,18.6 µM,–,14.8 µM,–,15.1 µM,–,19.5 µM,–,20.5 µM,–,8.9 µM,–,9.15 µM
COC(=O)c1c2c(c(C)[n+]([O-])c1C)C(=O)C(NCc1ccccc1)=CC2=O,3.5 µM,11.2 µM,2.8 µM,6.61 µM,2.46 µM,7.11 µM,1.7 µM,4.02 µM,2.03 µM,6.09 µM,2.32 µM,8.73 µM,1.71 µM,4.42 µM,2.09 µM,5.41 µM,2.9 µM,10.1 µM,2.73 µM,10.1 µM
CCc1cc2c(c(OCC(F)(F)F)c(C(=O)NC3CCN(C(=O)CO)CC3)n2C)c(=O)n1CC(=O)c1ccccc1,> 100 µM,> 100 µM,> 62.4 µM,> 100 µM,> 82.9 µM,> 100 µM,> 82.2 µM,> 100 µM,99.7 µM,> 100 µM,45.5 µM,> 100 µM,> 80.5 µM,> 100 µM,> 100 µM,> 100 µM,45.3 µM,> 100 µM,> 64.5 µM,> 100 µM
CC(=O)O[C@@H]1c2c(c3c(=O)c4cccc(O)c4c(=O)c=3c2=[N+]=[N-])[C@H](OC(C)=O)[C@@H](OC(C)=O)[C@]1(C)O,0.295 µM,1.05 µM and 1.17 µM,0.172 µM,1.84 µM and 0.355 µM,0.532 µM and 0.101 µM,1.14 µM and 0.222 µM,0.295 µM,1.4 µM and 0.815 µM,0.411 µM,1.77 µM and 1.59 µM,0.117 µM,0.77 µM and 0.461 µM,0.3 µM,0.987 µM and 1.15 µM,0.122 µM,1.38 µM and 0.663 µM,0.167 µM,1.19 µM and 0.352 µM,0.161 µM,0.374 µM and 0.3 µM
OCC1OC(N2C=C(c3nc4ccccc4s3)C3C=CC=CC32)C(O)C(O)C1O (stereo unspecified),20.6 µM,> 50 µM,9.51 µM,30.2 µM,16.6 µM,> 50 µM,14.8 µM,42.9 µM,15.6 µM,> 50 µM,18.9 µM,> 50 µM,19.8 µM,> 50 µM,18.1 µM,> 50 µM,24.8 µM,> 50 µM,14.7 µM,> 50 µM
Oc1ccc(N=Nc2ccc(Br)cc2)c(O)c1,3.43 µM,17.9 µM,1.1 µM,6.96 µM,3.59 µM,24.8 µM,7.52 µM,30.7 µM,3.22 µM,26.9 µM,3.69 µM,21.2 µM,2.81 µM,16.7 µM,3.86 µM,38.7 µM,2.27 µM,15.6 µM,5.44 µM,37.5 µM
CCCCCCCCCCCCCCCCn1cc[n+](C)c1,0.651 µM,1.94 µM,0.34 µM,1.68 µM,0.356 µM,1.53 µM,–,–,0.287 µM,1.87 µM,–,–,0.201 µM,0.517 µM,0.422 µM,1.96 µM,1.04 µM,2.24 µM,0.613 µM,2.01 µM
CC(C)[C@@]12C[C@@H](OC(=O)C3CO3)[C@@](C)(O1)[C@@H]1CC[C@@H](C)[C@H]1[C@@H]2OC(=O)/C=C/c1ccccc1 (stereo partly specified),26.4 µM,72.9 µM,12.4 µM,27.7 µM,18.7 µM,44.3 µM,19.2 µM,39.4 µM,17.8 µM,53.8 µM,5.33 µM,60.3 µM,24.3 µM,87.2 µM,18.2 µM,50.9 µM,1.76 µM,5.57 µM,2.34 µM,7.79 µM
COc1ccc(-c2cnc(-c3ccc(OC)cc3)n2-c2cc(OC)c(OC)c(OC)c2)cc1,30.7 µM,78.2 µM,19.7 µM,52.1 µM,24.4 µM,69.2 µM,22.9 µM,85.9 µM,28.6 µM,> 100 µM,19.7 µM,50.7 µM,28.3 µM,> 100 µM,36.8 µM,> 100 µM,18.2 µM,50 µM,–,–
COc1ccc(O)c(/C=N\Nc2ccccc2)c1,–,> 100 µM,–,> 100 µM,–,> 100 µM,–,> 100 µM,–,67.7 µM,–,> 100 µM,–,–,–,> 100 µM,–,> 100 µM,–,> 100 µM
CCn1nc(C2CCN(C(=O)CCO)CC2)nc1-c1cnc(N)c(-c2nnc(C(C)(C)C)o2)n1,16.7 µM,> 100 µM,0.208 µM,> 100 µM,> 65.5 µM,> 100 µM,–,–,26.1 µM,> 100 µM,38.2 µM,> 100 µM,0.245 µM,> 100 µM,6.69 µM,> 100 µM,0.966 µM,51.7 µM,3.92 µM,> 100 µM
